Test system: Pyrenophora teres
Format: in vivo
Details: 200 ppm

With `CCC(Oc1cc(Cl)cc(Cl)c1)C(=O)NC(C)(C)C#CCCCOC` (stereo not shown) [4(57), 2-(3,5-dichlorophenoxy)-N-(1-methoxy-6-methylhept-4-yn-6-yl) butyramide] the “control of fungal infection (preventive fungicidal activity)” value was “more than 60%”.

Reference: US7420090B2 (priority 2002, dated 2008)
